Measurements published in ChEMBL document CHEMBL5579892, “Rational Design, Synthesis, and Structure-Activity Relationship of a Novel Isoquinolinone-Based Series of HBV Capsid Assembly Modulators Leading to the Identification of Clinical Candidate AB-836” (J Med Chem, 2024).
Values after ≈ are worked out from the molar mass of the structure shown.

Assays:
[1] = tested on: Hepatitis B virus; assay: Antiviral activity against HBV infected in HepDE19 cells; type: functional, organism-based
[2] = Cytotoxicity against human HepDE19 cells by CellTiter-Glo analysis; type: toxicity, cell-based
[3] = Microsomal stability in mouse liver microsomes assessed as intrinsic clearance; type: ADME, Microsome; details: read-out: CLH
[4] = Microsomal stability in human liver microsomes assessed as intrinsic clearance; type: ADME, Microsome; details: read-out: CLH
[5] = Kinetic solubility in PBS at pH 7.4; type: physicochemical; details: read-out: Kinetic_solubility

SMILES	EC50 [1] [nM]	microsomal CLint [3] [µL/min/mg]	microsomal CLint [4] [µL/min/mg]	solubility kinetic [5] [µM]	CC50 [2] [nM]
CCCCN(C(=O)Nc1ccc(F)c(Cl)c1)C(C)c1c[nH]c(=O)c2ccccc12 (stereo not given)	6	243	143	–	> 25000
COCCCN(Cc1c[nH]c(=O)c2ccccc12)C(=O)Nc1ccc(F)c(Cl)c1	130	–	–	–	> 25000
COc1ncc(CNC(=O)Nc2ccc(F)c(Cl)c2)c2ccccc12	9000	–	–	–	–
C[C@H](c1c[nH]c(=O)c2cc(F)c(F)cc12)N(C)C(=O)Nc1cccc(F)c1F	290	–	–	–	> 25000
CCCCN(Cc1c[nH]c(=O)c2ccccc12)C(=O)Nc1ccc(F)c(Cl)c1	80	–	–	–	> 25000
O=C(Nc1ccc(F)c(Cl)c1)N(Cc1c[nH]c(=O)c2ccccc12)C1CC1	810	–	–	–	> 25000
C[C@H](c1c[nH]c(=O)c2cc(F)c(F)cc12)N(C)C(=O)Nc1cccc(F)c1	37	35	30	> 200	> 25000
CC(c1c[nH]c(=O)c2ccccc12)N(CCCO)C(=O)Nc1ccc(F)c(Cl)c1 (stereo not given)	10	185	71	–	> 25000
C[C@H](c1c[nH]c(=O)c2cc(F)c(F)cc12)N(C)C(=O)c1cc2cc(F)c(F)cc2[nH]1	12	22	14	5 (≈ 2.09 µg/mL)	> 25000
C[C@H](c1c[nH]c(=O)c2cc(F)c(F)cc12)N(C)C(=O)[C@H]1Cc2ccccc2N1	300	–	–	–	> 25000
CN(Cc1c[nH]c(=O)c2ccccc12)C(=O)Nc1ccc(F)c(Cl)c1	470	–	–	–	> 25000
C[C@H](c1c[nH]c(=O)c2cc(F)c(F)cc12)N(C)C(=O)c1cc2ccccc2[nH]1	23	50	26	< 4	> 25000
Cc1cc(NC(=O)N(C)[C@H](C)c2c[nH]c(=O)c3cc(F)c(F)cc23)ccc1F	7	60	42	95 (≈ 37 µg/mL)	> 25000
C[C@H](c1c[nH]c(=O)c2cc(F)c(F)cc12)N(C)C(=O)c1nc2ccccc2[nH]1	760	–	–	–	> 25000
O=C(NCc1c[nH]c(=O)c2ccccc12)Nc1ccc(F)c(Cl)c1	6800	–	–	–	> 25000
C[C@H](c1c[nH]c(=O)c2cc(F)c(F)cc12)N(C)C(=O)Nc1ccccc1	110	–	–	–	> 25000
CCCN(Cc1c[nH]c(=O)c2ccccc12)C(=O)Nc1ccc(F)c(Cl)c1	60	–	–	–	> 25000
COc1ncc(CN(C)C(=O)Nc2ccc(F)c(Cl)c2)c2ccccc12	2000	–	–	–	–
C[C@H](c1c[nH]c(=O)c2cc(F)c(F)cc12)N(C)C(=O)Nc1ccc(F)cc1	24	35	17	190 (≈ 71.3 µg/mL)	> 25000
COCCN(Cc1c[nH]c(=O)c2ccccc12)C(=O)Nc1ccc(F)c(Cl)c1	470	–	–	–	> 25000
C[C@H](c1c[nH]c(=O)c2cc(F)c(F)cc12)N(C)C(=O)[C@@H]1Cc2ccccc2N1	22	375	28	62 (≈ 23.8 µg/mL)	> 25000
C[C@H](c1c[nH]c(=O)c2cc(F)c(F)cc12)N(C)C(=O)c1cc2ccc(F)cc2[nH]1	22	33	13	12 (≈ 4.79 µg/mL)	> 25000
CCN(Cc1c[nH]c(=O)c2ccccc12)C(=O)Nc1ccc(F)c(Cl)c1	160	–	–	–	> 25000
C[C@H](c1c[nH]c(=O)c2cc(F)c(F)cc12)N(C)C(=O)Nc1ccc(F)c(F)c1	13	37	25	179 (≈ 70.4 µg/mL)	> 25000

The next lines start with results.

EC50 [1] [nM]	microsomal CLint [3] [µL/min/mg]	microsomal CLint [4] [µL/min/mg]	solubility kinetic [5] [µM]	SMILES	CC50 [2] [nM]
18	30	32	72 (≈ 28.2 µg/mL)	C[C@H](c1c[nH]c(=O)c2cc(F)c(F)cc12)N(C)C(=O)Nc1cccc(Cl)c1	> 25000
15	32	28	92 (≈ 37.7 µg/mL)	C[C@H](c1c[nH]c(=O)c2c(F)c(F)ccc12)N(C)C(=O)Nc1ccc(F)c(Cl)c1	> 25000
7	23	32	42 (≈ 17.2 µg/mL)	C[C@H](c1c[nH]c(=O)c2cc(F)c(F)cc12)N(C)C(=O)Nc1ccc(F)c(Cl)c1	> 25000
91	238	69	–	COCCN(C(=O)Nc1ccc(F)c(Cl)c1)C(C)c1c[nH]c(=O)c2ccccc12 (stereo not given)	> 25000
32	–	–	82 (≈ 32.1 µg/mL)	C[C@H](c1c[nH]c(=O)c2ccc(F)cc12)N(C)C(=O)Nc1ccc(F)c(Cl)c1	> 25000
25	32	62	–	CCN(C(=O)Nc1ccc(F)c(Cl)c1)C(C)c1c[nH]c(=O)c2ccccc12 (stereo not given)	> 25000
55	172	152	–	CC(c1c[nH]c(=O)c2ccccc12)N(C(=O)Nc1ccc(F)c(Cl)c1)C1CC1 (stereo not given)	> 25000
19	25	25	97 (≈ 39.8 µg/mL)	C[C@H](c1c[nH]c(=O)c2c(F)cc(F)cc12)N(C)C(=O)Nc1ccc(F)c(Cl)c1	> 25000
200	–	–	–	CC(c1c[nH]c(=O)c2cc(Cl)ccc12)N(C)C(=O)Nc1ccc(F)c(Cl)c1 (racemic)	> 25000
7	> 300	260	–	CC(C)CN(C(=O)Nc1ccc(F)c(Cl)c1)C(C)c1c[nH]c(=O)c2ccccc12 (stereo not given)	> 25000
40	–	–	146 (≈ 57.2 µg/mL)	C[C@H](c1c[nH]c(=O)c2c(F)cccc12)N(C)C(=O)Nc1ccc(F)c(Cl)c1	> 25000
9	190	110	–	CCCN(C(=O)Nc1ccc(F)c(Cl)c1)[C@H](C)c1c[nH]c(=O)c2ccccc12	> 25000
32	182	54	–	COCCCN(C(=O)Nc1ccc(F)c(Cl)c1)C(C)c1c[nH]c(=O)c2ccccc12 (stereo not given)	> 25000
1500	–	–	–	COc1cccc2c(=O)[nH]cc([C@@H](C)N(C)C(=O)Nc3ccc(F)c(Cl)c3)c12	> 25000
180	–	–	< 4	COc1ccc2c([C@@H](C)N(C)C(=O)Nc3ccc(F)c(Cl)c3)c[nH]c(=O)c2c1	> 25000
1400	–	–	42 (≈ 17 µg/mL)	COc1ccc2c(=O)[nH]cc([C@@H](C)N(C)C(=O)Nc3ccc(F)c(Cl)c3)c2c1	> 25000
85	–	–	< 4	C[C@H](c1c[nH]c(=O)c2c(Cl)cccc12)N(C)C(=O)Nc1ccc(F)c(Cl)c1	> 25000
20	37	28	98 (≈ 38.4 µg/mL)	C[C@H](c1c[nH]c(=O)c2cc(F)ccc12)N(C)C(=O)Nc1ccc(F)c(Cl)c1	> 25000
120	–	–	18 (≈ 7.35 µg/mL)	C[C@H](c1c[nH]c(=O)c2ccc(Cl)cc12)N(C)C(=O)Nc1ccc(F)c(Cl)c1	> 25000
